In patent publication US7794712B2, “Production of mutant strain of Aspergillus fumigatus, method of assay for inhibiting siderophore biosynthesis and diagnostic method for detecting likely Aspergillus fumigatus infection” (priority 2004, dated 2010):
Where “and” joins values, the source holds several entries; their conditions need not be identical. Identical values can stand only once.

Key:
A. fumigatus 13073 [1] = assay: Siderophore secretion inhibitor assay (A440 after FeCl3 addition); format: cell-based, Aspergillus fumigatus; conditions: for A440 (ferrated siderophores): 3 days; for Siderophore production as measured by A440: Neilands' medium without citrate, 48 hours
Source text: In this example 96-well sterile polystyrene filter plates as described above with white Duropore membranes at the base of the plate (Millipore) were used. The plates include a thick plastic layer under the wells, which has a one-way valve function that directs fluid into a receiving 96-well plate when the filter plate is subjected to a vacuum manifold or a centrifugal force. This layer can be peeled off if the membranes are to be sampled (punched) later.
Cultures were set up in the filter plates, with controls and inhibitors to be tested. After inclubation, culture fluid was pulled into a 96-well receiver plate, using the Beckman centrifuge and a JS 5.3 rotor designed to take 96-well plates. FeCl3 was added to the receiver plates, and A430 (general siderophores) or A440 (max for TAF) was read. Growth was scored in the plate by reading A600.
To test this method, different antibiotics were used to show inhibition of siderophore production by A. fumigatus 13073, as no inhibitors for the SidA gene product are currently known. Suitable ranges of concentrations of amphotericin B (fungizone), hygromycin, and nystatin were calculated based on the literature. Spores were harvested from A. fumigatus 13073 into PBS Tween, then washed once with PBS and counted. They were then diluted into Neilands' medium (without citrate) to give solutions of 2×10^5 and 2×10^6/ml. 100 μl of 2× spores and 100 μl of 2× antibiotics to yield a volume of 200 μl of Neilands' medium in each well, with the desired final concentrations of spores, 10^5 or 10^6/ml.
Antibiotics were prepared as follows. Amphotericin B came as a liquid solution, 250 µg/ml. […] Therefore 0, 0.125, 0.25, 0.5, 1 and […] final concentration was used. Nystatin was stored it in ˜1 mg dry aliquots at −20 C, and was prepared at a concentration of 2 mg/ml in DMSO for dilution into Neilands' media. According to reported information, nystatin should be effective at 1.5 to 6.5 µg/ml; therefore, 0, 0.5, 1, 5, 10 and 50 µg/ml were used as the final concentrations. Hygromycin gold stock was in solution at 100 mg/ml, and 0, 25, 50, 100, 150 and 200 µg/ml were used as the final concentrations in Neilands' medium. Plates were incubated for 3 days at 37° C. with shaking.
To test for siderophores, 20 μL of a solution of 2 mM FeCl3 in 10 mM HCl was added to each well in the receiver plates and the A440 was recorded on a plate reader. […] An increase in A440 indicates a more intense orange-red colour that develops in the presence of ferrated siderophores. […] Because 3-day incubation produces conidia, shorter incubation periods may be preferable.
(§1) Three identical plates were set up: one filter plate and two sterile clear 96-well plates. The clear plates were used to score growth, and the filter plate was used to detect siderophores. Columns 1-6 contained Neilands' medium without citrate and amphotericin 0-2 at g/ml. Columns 7-12 contained Neilands' medium with citrate and amphotericin at […]. The rows were set up with A. fumigatus as described above, but two sets of each were set up to be in the two plates. The spores from the previous experiment were stored at −20° C. in PBS, in siliconized tubes, at 2×10^8 conidia/ml, to facilitate these experiments. Plates were incubated for 48 hours at 37° C. without shaking.
(§2) The filter plate was centrifuged at 1000×g for 10 minutes and the liquids caught in a clear non-sterile plate, to which FeCl3 was added. The plate was allowed to sit and develop orange colour, and was then read at 440 nm. The clear plates (one without Fe and one with Fe added to growth medium from the beginning) were read at 600 nm (A600). In the result, iron enhanced conidiation. Some wells of the filter plate were lightly conidiated and would not drain. These were hand pipetted.

A. fumigatus 13073 [2] = assay: Growth scored by A600 in 96-well plates with or without iron; format: cell-based, Aspergillus fumigatus; conditions: 48 hours
Protocol: Siderophore production and growth was scored by using one antibiotic (amphotericin B) with two types of media (Neilands' with and without citrate), using the same spore concentrations as given above, but a shorter incubation time. Generally, this portion of the assay would be carried out when there was a potential inhibitor which scored positively in the first round of screening. Growth is scored with and without iron in the media.
as §1, §2

invasive aspergillosis = conditions: with prophylaxis and treatment; cited from earlier work

## C[C@@H]1[C@H](O)[C@@H](C)/C=C/C=C/C=C/C=C/C=C/C=C/C=C/[C@H](O[C@@H]2O[C@H](C)[C@@H](O)[C@H](N)[C@@H]2O)C[C@@H]2O[C@](O)(C[C@@H](O)C[C@@H](O)[C@H](O)CC[C@@H](O)C[C@@H](O)CC(=O)O[C@H]1C)C[C@H](O)[C@H]2C(=O)O [amphotericin B]
A. fumigatus 13073 [1]; amphotericin B 0.13 μg/ml, 1.00E+05 spores/ml
  A440 (ferrated siderophores): 0.178 and 0.156 and 0.145
A. fumigatus 13073 [1]; amphotericin B 0.13 μg/ml, 1.00E+06 spores/ml
  A440 (ferrated siderophores): 0.211 and 0.200
A. fumigatus 13073 [1]; amphotericin B 0.13 μg/ml, 100000 spores/ml
  Siderophore production as measured by A440: 0.047 and 0.042
A. fumigatus 13073 [1]; amphotericin B 0.25 μg/ml, 1.00E+05 spores/ml
  A440 (ferrated siderophores): 0.038 and 0.039 and 0.040
A. fumigatus 13073 [1]; amphotericin B 0.25 μg/ml, 1.00E+06 spores/ml
  A440 (ferrated siderophores): 0.085 and 0.168 and 0.130
A. fumigatus 13073 [1]; amphotericin B 0.25 μg/ml, 100000 spores/ml
  Siderophore production as measured by A440: 0.044 and 0.043
A. fumigatus 13073 [1]; amphotericin B 0.25 μg/ml, 1000000 spores/ml
  Siderophore production as measured by A440: 0.047 and 0.046 and 0.048
A. fumigatus 13073 [1]; amphotericin B 0.50 μg/ml, 1.00E+05 spores/ml
  A440 (ferrated siderophores): 0.042 and 0.040 and 0.039
A. fumigatus 13073 [1]; amphotericin B 0.50 μg/ml, 1.00E+06 spores/ml
  A440 (ferrated siderophores): 0.038 and 0.042 and 0.035
A. fumigatus 13073 [1]; amphotericin B 0.50 μg/ml, 100000 spores/ml
  Siderophore production as measured by A440: 0.042 and 0.043 and 0.046
A. fumigatus 13073 [1]; amphotericin B 0.50 μg/ml, 1000000 spores/ml
  Siderophore production as measured by A440: 0.043 and 0.042
A. fumigatus 13073 [1]; amphotericin B 1.00 μg/ml, 1.00E+05 spores/ml
  A440 (ferrated siderophores): 0.032 and 0.039 and 0.036
A. fumigatus 13073 [1]; amphotericin B 1 μg/ml, 100000 spores/ml
  Siderophore production as measured by A440: 0.042 and 0.041 and 0.045
A. fumigatus 13073 [1]; amphotericin B 1 μg/ml, 1000000 spores/ml
  Siderophore production as measured by A440: 0.05 and 0.047
A. fumigatus 13073 [1]; amphotericin B 2.00 μg/ml, 1.00E+05 spores/ml
  A440 (ferrated siderophores): 0.041 and 0.034
A. fumigatus 13073 [1]; amphotericin B 2.00 μg/ml, 1.00E+06 spores/ml
  A440 (ferrated siderophores): 0.036 and 0.034
A. fumigatus 13073 [1]; amphotericin B 2 μg/ml, 100000 spores/ml
  Siderophore production as measured by A440: 0.045
A. fumigatus 13073 [1]; amphotericin B 2 μg/ml, 1000000 spores/ml
  Siderophore production as measured by A440: 0.044 and 0.043 and 0.045
A. fumigatus 13073 [2]; Neilands' medium with vs without Fe
  Effect of iron on growth inhibition: addition of iron did not change the pattern of growth inhibition
A. fumigatus 13073 [2]; amphotericin B 0.13 μg/ml, 1000000 spores/ml, Neilands' medium without citrate or Fe
  Growth as measured by A600: 0.137 and 0.113 and 0.168
A. fumigatus 13073 [2]; amphotericin B 0.13 μg/ml, 1000000 spores/ml, Neilands' medium without citrate with Fe
  Growth as measured by A600: 0.139 and 0.113 and 0.169
A. fumigatus 13073 [2]; amphotericin B 0.25 μg/ml, 100000 spores/ml, Neilands' medium without citrate or Fe
  Growth as measured by A600: 0.068 and 0.083 and 0.076
A. fumigatus 13073 [2]; amphotericin B 0.25 μg/ml, 100000 spores/ml, Neilands' medium without citrate with Fe
  Growth as measured by A600: 0.067 and 0.091 and 0.076
A. fumigatus 13073 [2]; amphotericin B 0.25 μg/ml, 1000000 spores/ml, Neilands' medium without citrate or Fe
  Growth as measured by A600: 0.111 and 0.126 and 0.157
A. fumigatus 13073 [2]; amphotericin B 0.25 μg/ml, 1000000 spores/ml, Neilands' medium without citrate with Fe
  Growth as measured by A600: 0.11 and 0.126 and 0.157
A. fumigatus 13073 [2]; amphotericin B 0.50 μg/ml, 100000 spores/ml, Neilands' medium without citrate or Fe
  Growth as measured by A600: 0.035
A. fumigatus 13073 [2]; amphotericin B 0.5 μg/ml, 100000 spores/ml, Neilands' medium without citrate with Fe
  Growth as measured by A600: 0.035 and 0.034
A. fumigatus 13073 [2]; amphotericin B 0.50 μg/ml, 1000000 spores/ml, Neilands' medium without citrate or Fe
  Growth as measured by A600: 0.038 and 0.039 and 0.037
A. fumigatus 13073 [2]; amphotericin B 0.5 μg/ml, 1000000 spores/ml, Neilands' medium without citrate with Fe
  Growth as measured by A600: 0.038 and 0.039
A. fumigatus 13073 [2]; amphotericin B 1 μg/ml, 100000 spores/ml, Neilands' medium without citrate or Fe
  Growth as measured by A600: 0.035 and 0.036
A. fumigatus 13073 [2]; amphotericin B 1 μg/ml, 100000 spores/ml, Neilands' medium without citrate with Fe
  Growth as measured by A600: 0.035
A. fumigatus 13073 [2]; amphotericin B 1 μg/ml, 1000000 spores/ml, Neilands' medium without citrate or Fe
  Growth as measured by A600: 0.039 and 0.038
A. fumigatus 13073 [2]; amphotericin B 1 μg/ml, 1000000 spores/ml, Neilands' medium without citrate with Fe
  Growth as measured by A600: 0.039
A. fumigatus 13073 [2]; amphotericin B 2 μg/ml, 100000 spores/ml, Neilands' medium without citrate or Fe
  Growth as measured by A600: 0.035 and 0.036
A. fumigatus 13073 [2]; amphotericin B 2 μg/ml, 100000 spores/ml, Neilands' medium without citrate with Fe
  Growth as measured by A600: 0.035
A. fumigatus 13073 [2]; amphotericin B 2 μg/ml, 1000000 spores/ml, Neilands' medium without citrate or Fe
  Growth as measured by A600: 0.038 and 0.039
A. fumigatus 13073 [2]; amphotericin B 2 μg/ml, 1000000 spores/ml, Neilands' medium without citrate with Fe
  Growth as measured by A600: 0.038 and 0.039
Invasive aspergillosis
  Mortality rate if the disease spreads to the central nervous system: ~100%
  Mortality rate, pulmonary aspergillosis: 65%
